Where two headings read alike, the source gives them in different places. Bounds are passed on as bounds.

These results are taken from patent publication US20230107216A1, “PANTETHEINE DERIVATIVES AND USES THEREOF” (Comet Therapeutics, Inc., priority 2018, published 2023).

The subject of series [1] is Propionic Acidemia (PA) primary fibroblasts GM00371. The series is described as follows: Mitochondrial respiration, XFe96 Extracellular Flux Analyzer (OCR/ECAR), PA fibroblasts GM00371. Format: cell-based. Particulars: Homo sapiens, Fibroblast.
A further series relates to HepG2 cells. The series is described as follows: Glucose uptake (Glucose Uptake-Glo). Format: cell-based. Particulars: Homo sapiens, read-out: % increase in Glucose Uptake.
Series [2] deals with Venular Endothelial cells (HUVEC) (3C system). The series is described as follows: BioMAP 3C system (IL-1β, TNFα, IFNγ). As to conditions: 10 uM; procedure of Example 825. Format: cell-based, human. As to the method: (§1) The BioMAP platform (BioMAP® Diversity PLUS® Panel from Eurofins) is an in vitro phenotypic profiling technology that screened the compounds of the present disclosure (hereafter indicated as test agents) in human primary cell-based systems modelling complex tissue and disease states. The BioMAP assays were performed using the Eurofin's BioMAP Technology Platform as (see references 1 to 13 in the example 824 section) to model different diseases on primary cell-based model systems. These systems consisted of either single primary cell types or co-culture cells. Adherent cell types were cultured or co-cultured in 96 or 384-well plates until confluence followed by the addition of compounds prepared in DMSO at a final concentration of ≤0.1%. In each cell-based system, primary cells from heathy donors (2-6 donors) were pooled and treated with compounds at 1 and 10 μM dose 1h prior to stimulation and remain in culture as indicated in Example 825, Example 826, Example 827, Example 828, Example 829, Example 830, Example 831, Example 832, Example 833, Example 834, Example 835, Example 836 and Example 837. For on the BioMAP® Diversity PLUS® Panel, please see the following references, which are incorporate herein.
Following the general procedure as described in Example 824, Venular Endothelial cells (HUVEC) (3C system) were treated with IL-1β, TNFα, IFNγ for 24h to model Th1 driven cardiovascular and chronic inflammation diseases in the presence or absence of the compounds. Biomarker read out were; Tissue Factor, ICAM-1, E-selectin, uPAR (CD87), IL-8, MIG, HLA-DR, proliferation and SRB (Sulfo-rhodamine i.e. staining for protein content).

The subject of series [3] is Venular Endothelial cells (HUVEC) (4H system). Kind of series: BioMAP 4H system (IL-4 and histamine). Format: cell-based, human. As to conditions: 10 uM; procedure of Example 826.
In series [4] the test system is Peripheral blood mononuclear cells co-cultured with venular endothelial cells (HUVEC) (LPS system). Kind of series: BioMAP LPS system. Format: cell-based, human. As to conditions: procedure of Example 827.
Series [5] has as its system Bronchial epithelial cells co-cultured with dermal fibroblast (BF4T system). The series is described as follows: BioMAP BF4T system (TNFα and IL-4). Format: cell-based, human. Particulars: 10 uM, procedure of Example 830.
In series [6] the test system is Bronchial epithelial cells (BE3C system). Kind of series: BioMAP BE3C system (IL-1β, TNFα, IFNγ). In kind it is cell-based, human. Particulars: Homo sapiens, Epithelial cell, 24 h; 10 uM; procedure of Example 831; read-out: % decrease in MMP-1.
Series [7] deals with Coronary artery smooth muscle cells (CASM3C system). The series is described as follows: BioMAP CASM3C system (IL-1β, TNFα, IFNγ). Format: cell-based, human.
The subject of series [8] is Dermal fibroblasts (HDF3CGF system). Kind of series: BioMAP HDF3CGF system (IL-1β, TNFα, IFNγ, EGF, bFGF, PDGF-BB). In kind it is cell-based, human. Particulars: Homo sapiens, Fibroblast, 72 h; 10 uM; read-out: % increase in 72 Hour Proliferation.
The subject of series [9] is Keratinocytes co-cultured with dermal fibroblast (KF3CT system). The series is described as follows: BioMAP KF3CT system (IL-1β, TNFα, IFNγ, TGFβ). In kind it is cell-based, human. On the procedure: as §1
Following the general procedure as described in Example 824, Keratinocytes were co-cultured with dermal fibroblast (KF3CT system) and treated with IL-1β, TNFα, IFNγ and TGFβ for 24h in the presence or absence of the compounds to model psoriasis, dermatitis and skin biology. Biomarkers read out were; MCP-1, ICAM-1, IP-10, IL-8, MIG, IL-1α, MMP-9, PAI-1, SRB, TIMP-2, uPA.

Series [10] deals with Peripheral blood mononuclear cells co-cultured with B-cells (BT system).
Series [11] shares this test system. The series is described as follows: cells. As to conditions: Homo sapiens, 72 h, read-out: % decrease in sIL-17.
Series [12] relates to primary fibroblasts (healthy controls and PA, MMA, BCKDK, PDH, VLCAD, LS, PC, GA, VLCFA, KSS, FXN, HD). The series is described as follows: Measurement of ROS (H2DCFDA) in primary fibroblasts. Format: cell-based, human. As to conditions: Homo sapiens, procedure Example 812, Assay Condition C. Put shortly:
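Patient and healthy-control primary fibroblasts switched to supplemented DMEM 24 h before assay, then treated with compound (10 μM) plus H2DCFDA (22 μM) for 2 h (PA, MMA lines) or 24 h (other lines). Kinetic fluorescence at 492/527 nm over 60 min; only live cells analysed.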

For series [13], the system named is Subnormal activation of pyruvate dehydrogenase complex (PDH) primary fibroblasts GM01503 (GM1503A). Kind of series: Total NAD+ + NADH and NAD+ (NAD/NADH-Glo), PDH fibroblasts GM01503. In kind it is cell-based. Particulars: Homo sapiens, Fibroblast, PDH GM1503A P10, assay condition A, 24h, read-out: Increase in Total NAD+ + NADH. On the procedure:
(§2) Primary adherent fibroblasts were cultured in minimum essential medium (MEM) (Gibco, 25030081) supplemented with 2 mM L-Glutamine (Gibco, 25030081), 15% fetal bovine serum (FBS) (Gibco, 26400044) and 1% penicillin/streptomycin (Gibco, 5140122) at 37° C. and 5% CO2. Cells were collected for either passaging or experiment at ˜70-80% confluence. Cells were obtained by trypsinization and seeded in cell culture microplates either white plate (Thermo Fisher Scientific, 152028) for luminescent measurement or black plate (Thermo Fisher Scientific, 165305) for fluorescent based read out for different assays listed below. Cells were obtained by trypsinization and […] were seeded and allowed to adhere for 16-18 hours to have confluency around 70-80% in the cell well with culture media. After 24 hours prior to measurements (37° C., 5% CO2) media was changed to Dulbecco's Modified Eagle Medium (DMEM, Agilent Seahorse cat #103575-100) with the appropriate supplements as stated below.
(§3) Primary fibroblasts assayed were Propionic Acidemia (PA) (GM03590 Coriell Institute for Medical Research, Tsi 6337 Trans-Hit Bio), Methylmalonic Acidemia (MMA) (Tsi 5224 Trans-Hit Bio), Subnormal activation of pyruvate dehydrogenase complex (PDH) (GM01503 Coriell Institute for Medical Research), Very long-chain acyl-CoA dehydrogenase (VLCAD) (GM17475), Leigh Syndrome (LS) (GM03672, GM13411 Coriell Institute for Medical Research), Pyruvate Carboxylase Deficiency (PC) (GM00444 Coriell Institute for Medical Research). 10 μM of Compounds were added for 2 hours in PA, MMA lines and for 24h for the other fibroblast lines.
(§4) Assay was performed according to manufacturer instructions (NAD/NADH-Glo Assay Promega, G9072). The NAD/NADH-Glo Assay is a bioluminescent assay for detecting total oxidized and reduced nicotinamide adenine dinucleotides (NAD+ and NADH, respectively) from which ratio of NAD/NADH can be calculated. Briefly, for every assay a 12-point standard curve was prepared ranging from 400 nM to 0.625 nM. Media was removed and replaced with 50 μl of PBS for both assays.
(§5) For individual NAD+ and NADH measurement, 50 μl of 1% DTAB (Sigma Cat #D5047) (cell lysis reagent) in 0.2N NaOH was added to the plate and a total 100 μl of lysate was split into two plates with 50 μl each. 25 μl of 0.4N HCl were added to the NAD+ plate and both NAD+ and NADH plate were heated at 60° C. for 15 minutes. The acid and heat treatment destroyed NADH allowing individual NAD+ measurement while heating in basic conditions destroys NAD+ allowed individual NADH measurements. The plates were allowed to come to room temperature for 10 minutes and Trizma base (Sigma, T1699) was added to the NAD+ plate to neutralize the acid and HCl Trizma hydrochloride (Sigma, T2694) was added to the NADH plate. The NADNADH glo reagent was prepared by adding: 625 μl of NAD cycling substrate, 125 μl of reductase, 125 μl of reductase substrate, 125 μl NAD cycling enzyme to total of the 25 ml of NAD GLO reagent. 1:1 ratio of total volume of reagent was added to the individual NAD+, NADH measurement (total 100 μl) and 50 μl for total NAD/NAH measurement. Luminescence was read between 30-60 minutes within the linear range.
(§6) A total dead cell count was performed as described in Example 817 and only alive cells were used for analysis.

In series [14] the test system is Very long-chain acyl-CoA dehydrogenase (VLCAD) primary fibroblasts GM17475. Kind of series: Total NAD+ + NADH and NAD+ (NAD/NADH-Glo), VLCAD fibroblasts GM17475. Format: cell-based. As to conditions: Homo sapiens, Fibroblast, VLCAD GM17475 P10, assay condition A, 24h, read-out: Increase in Total NAD+ + NADH. On the procedure: as §2, §3, §4, §5, §6

For `COC(=O)CCC(=O)SCCNC(=O)CCNC(=O)[C@H](OC(C)=O)C(C)(C)CO` [Compound 213, methyl 4-[(2-[3-[(2R)-2-(acetyloxy)-4-hydroxy-3,3-dimethylbutanamido]propanamido]ethyl)sulfanyl]-4-oxobutanoate], the activation at 10 µM in series [1] (assay condition A (10 mM glucose, 2 mM L-glutamine, 1 mM pyruvate, 10% FBS), 10 μM, read-out: Increase in Spare Capacity AUC) was at least 10%; in [5] (Homo sapiens, 24 h, read-out: % increase in VCAM-1), at least 10%; in [8], at least 10%. In addition, the activation at 50 µM is at least 10% in series [1] (assay condition D (1 mM glucose, 10% FBS), read-out: Increase in Spare Capacity AUC) and at least 30% in the series with HepG2 cells (50 uM). In addition, the “% decrease in IL-8” value in series [2] is recorded as at least 10%. The “% decrease in MCP-1” value in series [3] is on record as at least 10%; in series [9] (10 uM, procedure of 834) it was at least 10%. Besides, the “% decrease in M-CSF” value in [4] (1 uM) is at least 10%; in [7] (1 uM, procedure of Example 832), at least 10%. In addition, the inhibition at 1 µM in series [4] (Homo sapiens, HUVEC, 24 h, 1 uM, read-out: % decrease in IL-8) was at least 10%; in series [11], at least 20%. The inhibition at 10 µM is at least 20% in [4] (Homo sapiens, HUVEC, 24 h, read-out: % decrease in IL-1α); at least 10% in [4] (Homo sapiens, HUVEC, 24 h, read-out: % decrease in TissueFactor); at least 10% in series [6]; at least 20% in series [7] (Homo sapiens, 24 h, 10 uM, read-out: % decrease in Thrombomodulin). For the same compound, the “% decrease in MMP-9” value in series [5] and in series [9] (1 uM) was at least 10% in each case. Moreover, in series [7] (1 uM), the “% decrease in HLA-DR” value is given as at least 10%. For the same compound, in [7] (1 uM), the “% decrease in Tissue Factor” value is at least 10%. Also, in series [7] (1 uM, procedure of Example 832), the “% decrease in VCAM-1” value is at least 10%. Moreover, the “% decrease in CXCL9” value in series [7] (10 uM) is on record as at least 10%. The “% decrease in sIL-2” value in [10] (1 uM, procedure of Example 829) is at least 10%. The “% decrease in sTNFα” value in [10] (1 uM, procedure of Example 829) was at least 10%. Moreover, the “% decrease in PBMC cytotoxicity” value in series [10] (human, 72 h, 1 µM) is reported as at least 10%.
Turning to `CC(=O)C(C(C)=O)C(=O)SCCNC(=O)CCNC(=O)[C@H](O)C(C)(C)CO` [Compound 397, (2R)—N-[2-([2-[(2-acetyl-3-oxobutanoyl)sulfanyl]ethyl]arbamoyl)ethyl]-2,4-dihydroxy-3,3-dimethylbutanamide], the activation at 50 µM in [1] (assay condition C (10 mM glucose, 10% FBS), read-out: Increase in Maximal Respiratory Capacity AUC) is at least 10%. Besides, the inhibition at 10 µM was at least 10% in series [12] (Fibroblast, PDH GM01503, read-out: Decreased ROS by at least 10%); at least 30% in series [12] (Fibroblast, PDH GM01503, read-out: Decreased ROS by at least 30%); at least 30% in series [12] (FXN GM04078, read-out: Decreased ROS by at least 30%). For the same compound, the activation at 10 µM is at least 10% in series [13], at least 10% in [14] and at least 20% in the series with HepG2 cells (10 uM).
